Laboratory results published in PMC9238401, “Peptide Conjugates Derived from flg15, Pep13, and PIP1 That Are Active against Plant-Pathogenic Bacteria and Trigger Plant Defense Responses” (Applied and Environmental Microbiology, 2022).
No end group written: not given here.

Legend:
horse erythrocytes = conditions: TRIS buffer pH 7.2, 1 h, 37°C, absorbance 540 nm, relative to melittin 100 μM, ± confidence interval (α = 0.05)
Method: The toxicity of peptide conjugates to eukaryotic cells was determined as the ability to lyse erythrocytes (Table SB).
The hemolytic activity of the compounds was evaluated by determining hemoglobin release from erythrocyte suspensions of horse blood (5% vol/vol) (Oxoid) as previously described ([45]). Blood was centrifuged at 6000g for 5 min, washed three times with TRIS buffer (10 mM TRIS, 150 mM NaCl, pH 7.2) and diluted 10 times. Compounds were solubilized in TRIS buffer at 750, 500, 300, and 100 μM and mixed with horse erythrocytes (1:1 vol/vol). The mixture was incubated with continuous shaking for 1 h at 37°C. Then, the tubes were centrifuged at 3500g for 10 min, 80-μL aliquots of the supernatant were transferred to 100-well microplates (Bioscreen) and diluted with 80 μL water, and the absorbance measured at 540 nm (Bioscreen). […] The percentage of hemolysis (H) was calculated using the equation H = 100 × ([Op − Ob]/[Om − Ob]), where Op is the density for a given compound concentration, Ob is that for the buffer, and Om is that for the melittin positive control.

[1] = system: Xanthomonas axonopodis pv. vesicatoria 2133-2; conditions: TSB, 25°C, 48 h, OD 600 nm (Bioscreen C), three replicates, experiment repeated twice; MIC given as range
Excerpt: The corresponding monomers (flg15, BP13, Pep13, PIP1, BP16, BP100, BP143, BP387, BP475, and KSL-W) were included for comparison.
(§1) The following plant-pathogenic bacterial strains were used: Erwinia amylovora PMV6076 (Institut National de la Recherche Agronomique, Angers, France), Pseudomonas syringae pv. syringae EPS94 (Institut de Tecnologia Agroalimentària, University of Girona, Spain), Xanthomonas axonopodis pv. vesicatoria 2133-2, X. axonopodis pv. vesicatoria Xav206 (Xav) (D. F. Ritchie, Department of Plant Pathology, North Carolina State University), Pseudomonas syringae pv. actinidiae Psa3700.1.1, Xanthomonas fragariae Xf349-9A (Instituto Valenciano de Investigaciones Agrarias, Valencia, Spain), and Xanthomonas arboricola pv. pruni CFBP5563 (Collection Française de Bactéries Associées aux Plantes, Angers, France). All bacteria except for X. fragariae were stored in Luria Bertani (LB) broth supplemented with glycerol (20%) and maintained at −80°C. For X. fragariae, medium B ([80]) was used instead of LB. E. amylovora, X. arboricola pv. pruni, P. syringae pv. syringae, and P. syringae pv. actinidiae were scraped from the agar medium after growing for 24 h at 25°C, and X. axonopodis pv. vesicatoria and X. fragariae, after growing for 48 h at 25°C. The cell material was suspended in sterile water to obtain a suspension of 10^8 CFU mL^−1.
(§2) Lyophilized peptides were solubilized in sterile Milli-Q water to a final concentration of 1 mM and filter-sterilized through a 0.22-μm pore filter. […] Then, 20 μL of each dilution were mixed in a microtiter plate well with 20 μL of the corresponding suspension of the bacterial indicator, 160 μL of Trypticase soy broth (TSB) (bioMérieux, France) to a total volume of 200 μL. Three replicates for each combination of strain, compound, and concentration were used. Microbial growth was determined by optical density measurement at 600 nm (Bioscreen C; Labsystem, Helsinki, Finland). Microplates were incubated at 25°C with 20 s of shaking before hourly absorbance measurement for 48 h. The experiment was repeated twice. The MIC was taken as the lowest compound concentration with no growth at the end of the experiment.

tobacco leaves = assay: Effect of peptide infiltration on tobacco leaves (phytotoxicity); assay type: in vivo
Method: Peptide conjugates were also assayed for their toxicity in tobacco leaves (Fig. 3, Table SC). After 48 h of infiltration, melittin caused a necrotic area of 0.70 and 2.17 cm in diameter at 50 and 250 μM, respectively. The monomers were not phytotoxic at those concentrations; all of them led to lesions of ≤1.2 cm at 250 μM. All peptide conjugates were also less phytotoxic than melittin, causing necrotic lesions between 0.26 and 1.67 cm in diameter at 250 μM. In particular, 15 of the 30 conjugates led to a necrotic area of <1 cm at this concentration. In general, sequences incorporating BP13 were among the most phytotoxic.
Peptide conjugates were evaluated for their effect on infiltration on tobacco leaves as described previously ([41]). Peptide solutions of 50, 150, and 250 μM were infiltrated (100 μL) into the mesophylls of fully expanded tobacco leaves. Infiltrations were carried out in a single leaf, and for each peptide and dose, at least three leaves randomly distributed in different plants were inoculated. Control infiltrations with water (negative control) or melittin (positive control) at the same molar concentration were performed. The appearance of symptoms on the leaves was followed for 48 h after infiltration and measured as lesion diameter.

[2] = system: Pseudomonas syringae pv. syringae EPS94; assay: In vitro growth inhibition (MIC); assay type: cell-based; conditions: TSB, 25°C, 48 h, OD 600 nm (Bioscreen C), three replicates, experiment repeated twice; MIC given as range
Method: (§3) Peptide conjugates were tested for in vitro growth inhibition of the plant-pathogenic bacteria E. amylovora PMV6076, Xanthomonas arboricola pv. pruni CFBP5563, X. fragariae Xf349-9A, X. axonopodis pv. vesicatoria 2133-2, P. syringae pv. actinidiae Psa3700.1.1, and P. syringae pv. syringae EPS94 (Fig. 1, Table SA). The corresponding monomers (flg15, BP13, Pep13, PIP1, BP16, BP100, BP143, BP387, BP475, and KSL-W) were included for comparison.
as §1, §2

[3] = system: Xanthomonas arboricola pv. pruni CFBP5563; assay: In vitro growth inhibition (MIC); assay type: cell-based; conditions: TSB, 25°C, 48 h, OD 600 nm (Bioscreen C), three replicates, experiment repeated twice; MIC given as range
Method: as §3, §1, §2

[4] = system: Pseudomonas syringae pv. actinidiae Psa3700.1.1; assay: In vitro growth inhibition (MIC); assay type: cell-based; conditions: TSB, 25°C, 48 h, OD 600 nm (Bioscreen C), three replicates, experiment repeated twice; MIC given as range
Method: as §3, §1, §2

[5] = system: Xanthomonas fragariae Xf349-9A; assay: In vitro growth inhibition (MIC); assay type: cell-based; conditions: TSB, 25°C, 48 h, OD 600 nm (Bioscreen C), three replicates, experiment repeated twice; MIC given as range
Method: as §3, §1, §2

[6] = system: Erwinia amylovora PMV6076; assay: In vitro growth inhibition (MIC); assay type: cell-based; conditions: TSB, 25°C, 48 h, OD 600 nm (Bioscreen C), three replicates, experiment repeated twice; MIC = lowest concentration with no growth, given as range
Method: as §3, §1, §2

[7] = 100 μL infiltrated into mesophyll, lesion diameter 48 h after infiltration, at least three leaves, ± confidence interval (α = 0.05)

| Substance | Percent hemolysis at 50 μM (horse erythrocytes) | Percent hemolysis at 150 μM (horse erythrocytes) | Percent hemolysis at 250 μM (horse erythrocytes) | Percent hemolysis at 375 μM (horse erythrocytes) | MIC, Xav [1] | Size of the lesions in infiltrated tobacco leaves at 50 μM (tobacco leaves; in vivo) | Size of the lesions in infiltrated tobacco leaves at 150 μM (tobacco leaves; in vivo) | Size of the lesions in infiltrated tobacco leaves at 250 μM (tobacco leaves; in vivo) | MIC, Pss [2] | MIC, Xap [3] | MIC, Psa [4] | MIC, Xf [5] | MIC, Ea [6] | Size of the lesions in infiltrated tobacco leaves at 50 μM (tobacco leaves; [7]) | Size of the lesions in infiltrated tobacco leaves at 150 μM (tobacco leaves; [7]) | Size of the lesions in infiltrated tobacco leaves at 250 μM (tobacco leaves; [7]) |
| --- | --- | --- | --- | --- | --- | --- | --- | --- | --- | --- | --- | --- | --- | --- | --- | --- |
| VWNQPVRGFKVYE-OH [Pep13, pathogen-associated molecular pattern (PAMP) from Phytophthora sojae; plant defense elicitor monomer] | 0 ± 0.6% | 0 ± 0.3% | 2 ± 0.1% | 0 ± 0.1% | > 50 µM | 0 ± 0 cm | 0 ± 0 cm | 0 ± 0 cm | > 50 µM | > 50 µM | > 50 µM | > 50 µM | > 50 µM | – | – | – |
| KKLfKKILKYL-FKLFKKILKVL-NH2 [BP143-BP13, peptide conjugate, BP143 at N-terminus, BP13 at C-terminus] | 100 ± 6.1% | 100 ± 3.6% | 100 ± 7.1% | 100 ± 7.0% | 6.2 to 12.5 µM | – | – | – | > 50 µM | 12.5 to 25 µM | 25 to 50 µM | 6.2 to 12.5 µM | > 50 µM | 0.18 ± 0.10 cm | 0.40 ± 0.14 cm | 1.14 ± 0.36 cm |
| FKLFKKILKVL-KKLFKKILKYL-NH2 [BP13-BP100, peptide conjugate, BP13 at N-terminus, BP100 at C-terminus] | 100 ± 8.3% | 100 ± 5.9% | 99 ± 7.1% | 100 ± 4.8% | 12.5 to 25 µM | – | – | – | > 50 µM | 12.5 to 25 µM | 25 to 50 µM | 6.2 to 12.5 µM | > 50 µM | 0.60 ± 0.30 cm | 1.20 ± 0.17 cm | 1.30 ± 0.17 cm |
| KKLFKKILKYL-FKLFKKILKVL-NH2 [BP100-BP13, peptide conjugate, BP100 at N-terminus, BP13 at C-terminus] | 100 ± 9.4% | 100 ± 5.5% | 98 ± 3.3% | 99 ± 3.7% | 6.2 to 12.5 µM | – | – | – | > 50 µM | 12.5 to 25 µM | 25 to 50 µM | 6.2 to 12.5 µM | > 50 µM | 0.73 ± 0.20 cm | 1.36 ± 0.23 cm | 1.46 ± 0.06 cm |
